Common to all, as to assay type: in vivo
For one experiment, the system named is DBA/2 mice. Description: Audiogenic seizure model. The conditions noted are these: Mus musculus; male and female DBA/2 mice, 30 mg/kg oral, auditory stimulation 1 hour after administration; read-out: Seizure suppression rate (%). As for the experimental part:
The animal model used in this test is a phenotype model for partial seizure (including secondary generalized seizure) and generalized tonic-clonic seizure, and has high clinical predictability. This test was performed in accordance with the report of De Sarro et al (Br J Pharmacol. 1988 February; 93(2): 247-56. Anticonvulsant effects of some calcium entry blockers in DBA/2 mice. De Sarro G B, Meldrum B S, Nistico G.).
In this test example, the example compounds shown in Table 3 below were used as test compounds. The following compound (compound of Example 5 of WO 2004/009559), which is the most similar compound when the substituent position is taken into consideration, was used as a comparative example compound.
The test compounds were suspended in 5% gum arabic/distilled water (w/v), and administered by forced oral administration to male and female DBA/2 mice (Japan SLC, Inc., 3 weeks old, 8 per group) at a dose of 30 mg/kg. After one hour of the oral administration of the test compound, each mouse was placed in a transparent acrylic cylinder 30 cm high and 23 cm in diameter, and 30 seconds were allowed for habituation. Then, they were exposed to auditory stimulation (12.6 kHz, 100-110 dB) for 1 minute or until a tonic seizure occurred.
The seizure response was assessed using the following scale, 0: no seizure, 1: wild running, 2: clonic seizure, 3: tonic seizure and 4: respiratory arrest. The maximum response was recorded as the seizure severity score.
The seizure suppression rate for each compound administration group was calculated according to the following formula.

The test system of experiment [1] is ICR mice. As to the kind of experiment: Maximal electroshock seizure (MES) model. The settings on record: Mus musculus; male ICR mice, 30 mg/kg oral, electrical stimulation (30 mA, 100 Hz, 0.2 second) 1 hour after administration; read-out: rate of seizure suppression (tonic hindlimb extension seizure). As for the experimental part:
This test is performed to evaluate the anticonvulsant activity of the compound. The mouse model used in this test is a phenotype model of generalized tonic-clonic seizure and secondary generalized partial seizure. This test was performed in accordance with the report of AJ Hill et al (Br J Pharmacol. 2012 December; 167(8): 1629-42. Cannabidivarin is anticonvulsant in mouse and rat, Hill A J, et al.).
The test compound was suspended in 5% gum arabic/distilled water (w/v), and administered by forced oral administration to male ICR mice (Japan SLC, Inc., 5 to 6 weeks old, 8 per group) at a dose of 30 mg/kg. After one hour of the oral administration of the test compound, the mice were stimulated by an application of electrical current (30 mA, 100 Hz, 0.2 second) through auricular electrodes using an electroconvulsive device (UGO BASILE SRL). Then, the incidence of tonic hindlimb extension seizure was recorded. In this test, tonic hindlimb extension seizures were induced in all mice of the solvent administration group, but the rate of seizure suppression was 75% or more with the example compounds 1, 2, 3, 5, 8, 10, 12, 13, 14, 16, 18, 22, 26, 28, 30, 31, 38, 42, 47, 48 and 54, and the suppression rate was 50% or more with the example compounds 4, 6, 9, 11, 23, 41 and 45.
(In general: In the maximal electroshock model the usual endpoint is tonic extension of the hind limbs.)

Experiment [2] concerns ICR mice. Description: Subcutaneous pentylenetetrazole (scPTZ) model. The settings on record: Mus musculus; male ICR mice, 30 mg/kg oral, 85 mg/kg pentylenetetrazole s.c. after 1 hour, evaluated for 30 minutes; read-out: rate of suppression against clonic convulsions. As for the experimental part: This test is performed to evaluate the anticonvulsant activity of the compound as in Test Example 2. Unlike the phenotype of Test Example 2, the animal model used in this test is a phenotype model of generalized absence seizure and myoclonic seizure.
The test compound was suspended in 5% gum arabic/distilled water (w/v), and administered by forced oral administration to male ICR mice (Japan SLC, Inc., 5 to 6 weeks old, 10 per group) at a dose of 30 mg/kg. After 1 hour, 85 mg/kg of pentylenetetrazole dissolved in saline was administered subcutaneously, and the occurrence of clonic convulsions was evaluated for 30 minutes.

Consider two compounds from US10800758B2, “Pyrimidine compound” (OTSUKA PHARMACEUTICAL CO., LTD., priority 2017, dated 2020).

Regarding `O=C1CCN(c2cnc(Oc3ccccc3F)nc2)C(=O)N1` [Example 2, 1-[2-(2-Fluorophenoxy)pyrimidin-5-yl]-5,6-dihydropyrimidine-2,4(1H,3H)-dione], the inhibition in vivo at 30 mg/kg in the experiment on DBA/2 mice was 100%. Besides, the responders at 30 mg/kg in the experiment on ICR mice [1] and in the experiment with ICR mice [2] was ≥ 75% in each case.

With `O=C1CCN(c2cnc(Oc3cccc(F)c3)nc2)C(=O)N1` [Example 3, 1-[2-(3-Fluorophenoxy)pyrimidin-5-yl]-5,6-dihydropyrimidine-2,4(1H,3H)-dione], in the experiment with DBA/2 mice, the inhibition in vivo at 30 mg/kg turned out to be 100%. Further, the responders at 30 mg/kg in the experiment on ICR mice [1] and with ICR mice [2] was ≥ 75% throughout.
